Source: US10662218B2, “Analogs of celastrol” (ERX Pharmaceuticals, Inc., priority 2015, dated 2020)
In brackets after ≈: the same amount, converted by molar mass.

Key:
[1] = Compound solubility in PBS (pH 7.4), LC-MS/MS
Description: • Test concentration: 100 μM (1% of DMSO) • Test systems: PBS (pH 7.4) • Incubation condition: shaken (1000 rpm) for 1 h at room temperature • Sample size: Duplicates (n=2) • Bioanalytical method: LC-MS/MS

[2] = test system: C57BL/6 Diet Induced Obese (DIO) mice; assay: Oral (P.O.) administration study in DIO mice: in vivo activity, body weights; parameters: species or system mouse; details: 2 mg/kg oral gavage once daily for 10 days, compared with controls
Source text: The purpose of this study was to assess test articles in the Diet Induced Obese (DIO) mouse.
Male C57BL/6 Diet Induced Obese (DIO) mice were received from Taconic. Animals were acclimated to housing conditions for at least 1 week prior to vehicle acclimation dosing. Animals were acclimated to oral gavage dosing with vehicle once daily for Days 11 through 14 of the predose phase.
At initiation of dosing, animals were 21 to 22 weeks old, and their body weights ranged from 29.8 to 40.1 g.
Dose formulations were administered by oral gavage once daily for 10 days at a dose volume of 2 mL/kg. Doses were based on the most recently recorded scheduled body weight.
Body weights were recorded daily on Days 11 through 14 of the predose phase. Body weights were collected for all animals daily during the dosing phase prior to dosing.
Descriptive statistics (n, mean, standard error of the mean, standard deviation) were completed. Additionally, one-way analysis of variance followed by Dunnett's post-hoc test were performed on body weight (cumulative body weight change), glucose (glucose percent change), and food consumption (cumulative food consumption). Area under the curve (for body weight, cumulative body weight change, daily body weight change, and food consumption) was computed for treatment groups. An appropriate comparison test, such as one-way analysis of variance and Dunnett's, was performed on the group means for the area under the curve computations. Any additional statistical analysis and interpretation of the results were the responsibility of the sponsor.

[3] = PBS (pH 7.4), pH 7.4, aqueous buffer, kinetic from dmso stock, Solubility (μM) Mean, Table 6-B, test concentration 100 μM (1% of DMSO), shaken (1000 rpm) 1 h at room temperature, n = 2
[4] = PBS (pH 7.4), pH 7.4, aqueous buffer, kinetic from dmso stock, Solubility (μM), Table 6-D
[5] = pH 7.4, aqueous buffer, kinetic from dmso stock, Solubility (μM) Mean, Table 6-B; PBS (pH 7.4), test concentration 100 μM (1% of DMSO), shaken (1000 rpm) 1 h at room temperature, n = 2
[6] = pH 7.4, aqueous buffer, kinetic from dmso stock, Solubility (μM), Table 6-D; PBS (pH 7.4)

solubility at 1 h [1, 3] [µM] | solubility at 1 h [1, 4] [µM] | Compound | other results
4.03 (≈ 2.01 µg/mL) | 4.03 (≈ 2.01 µg/mL) | CC1=C(O)C(=O)C=C2C1=CC=C1[C@@]2(C)CC[C@@]2(C)[C@@H]3C[C@](C)(NS(C)(=O)=O)CC[C@]3(C)CC[C@]12C [ERX1175] | 
35.7 (≈ 19 µg/mL) | 35.7 (≈ 19 µg/mL) | CC(=O)N1CCN(c2ccc(OCC3COC(Cn4ccnc4)(c4ccc(Cl)cc4Cl)O3)cc2)CC1 (stereo not drawn) [Ketoconazole] | solubility at 1 h ([1]; PBS (pH 7.4), pH 7.4, aqueous buffer, kinetic from dmso stock, Solubility (μM) Mean, Table 6-C, test concentration 100 μM (1% of DMSO), shaken (1000 rpm) 1 h at room temperature, n = 2): 35.2 µM (≈ 18.7 µg/mL)
6.44 (≈ 3.93 µg/mL) | 6.43 (≈ 3.93 µg/mL) | CC(=O)Oc1cc2c(c(C)c1OC(C)=O)C(SC(C)=O)C=C1[C@@]2(C)CC[C@@]2(C)[C@@H]3C[C@](C)(C(=O)O)CC[C@]3(C)CC[C@]12C (stereo partly drawn) [ERX1076] | 
 |  | CC1=C(O)C(=O)C=C2C1=CC=C1[C@@]2(C)CC[C@@]2(C)[C@@H]3C[C@](C)(C(=O)NC(CO)CO)CC[C@]3(C)CC[C@]12C [ERX1029] | solubility [1, 5]: 1.61 µM (≈ 0.843 µg/mL); solubility [1, 6]: 1.6 µM (≈ 0.841 µg/mL)
0.47 (≈ 0.238 µg/mL) | 0.47 (≈ 0.238 µg/mL) | CC1=C(O)C(=O)C=C2C1=CC=C1[C@@]2(C)CC[C@@]2(C)[C@@H]3C[C@](C)(CN4CCOCC4)CC[C@]3(C)CC[C@]12C [ERX1116] | 
0.63 (≈ 0.384 µg/mL) | 0.627 (≈ 0.383 µg/mL) | CC(=O)Oc1cc2c(c(C)c1OC(C)=O)C(SC(C)C)C=C1[C@@]2(C)CC[C@@]2(C)[C@@H]3C[C@](C)(C(N)=O)CC[C@]3(C)CC[C@]12C (stereo partly drawn) [ERX1066] | 
 |  | CC(C)NCC(O)COc1cccc2ccccc12 (stereo not drawn) [Propranolol] | solubility at 1 h [1, 5]: 97.5 µM (≈ 25.3 µg/mL); solubility at 1 h ([1]; pH 7.4, aqueous buffer, kinetic from dmso stock, Solubility (μM) Mean, Table 6-C; PBS (pH 7.4), test concentration 100 μM (1% of DMSO), shaken (1000 rpm) 1 h at room temperature, n = 2): > 100 µM; solubility at 1 h [1, 6]: 97.5 µM (≈ 25.3 µg/mL)
1.04 (≈ 0.509 µg/mL) | 1.03 (≈ 0.507 µg/mL) | C=CCOC1=C(C)C2=CC=C3[C@@](C)(CC[C@@]4(C)[C@@H]5C[C@](C)(C(N)=O)CC[C@]5(C)CC[C@]34C)C2=CC1=O [ERX1124] | 
 |  | CC1=C(O)C(=O)C=C2C1=CC=C1[C@@]2(C)CC[C@@]2(C)[C@@H]3C[C@](C)(C(=O)N(C)C)CC[C@]3(C)CC[C@]12C [ERX1008] | solubility [1, 5]: 0.08 µM (≈ 0.0382 µg/mL); solubility [1, 6]: 0.0841 µM (≈ 0.0402 µg/mL); cumulative body weight change [2]: statistically significant decreases
